According to US20040115813A1, “Real time measurement of cellular responses” (priority 2002, published 2004):

Experiments:
Format in all cases: cell-based, human
HT-1080-dual-6 cells = test: Real time observation of apoptotic process in vitro by fluorescence microscopy; details: 2 μM staurosporine; for apoptosis induction: imaged every 2 hours up to 12 hours; for nuclear/cytoplasmic morphology during apoptosis: images at 2-12 hours
Experimental: HT-1080-dual-6 cells were incubated with 2 μM staurosporine for apoptosis induction. The cells were visualized under blue light and images were captured with a CCD camera and fluorescence microscope. […] Bar, 50 μm. […] Bar, 10 μm.
To capture the images of real time apoptotic processes, the HT-1080-dual-6 clone was used. Staurosporine (Alexis, San Diego, Calif.), dissolved in DMSO and stored at −80 degrees, was used for induction of apoptosis. 3×10^5 cells were seeded in a 25 cm^2 flask with RPMI 1640 with 10% FBS. Staurosporine was added the next day at a concentration of 2 μM. Every 2 hours, the flask was set under the fluorescent stereo microscope and real time images were captured at each time point.

PC-3 dual cells [1] = test: DNA extraction and agarose gel electrophoresis (1.8%) for DNA fragmentation; details: Taxol 0.8 μg/ml
Experimental: (§1) PC-3 dual cells were treated with Taxol™ (0.8 ug/ml); thymidine (2 mM), and vinblastine (60 nM). Real-time imaging was done at 0, 12, 24, 36, and 48 hours. Cells were collected for DNA extraction and agarose gel electrophoresis (1.8%) analysis. […] The nuclear ring structures were […] by 24 hours.

PC-3 dual cells [2] = test: Real-time visualization of drug-induced apoptosis and nuclear morphology in dual-labeled cells
Excerpt: The dual-color cells could be easily placed in their cell cycle position by the “nuclear-cytoplasmic” ratio as observed in living cells. For fluorescence microscopy of these cells, a Leica fluorescence stereo microscope model LZ12 equipped with a mercury 50W lamp power supply was used. To visualize both GFP and RFP fluorescence at the same time, excitation was produced through a D425/60 band pass filter, 470 DCXR dichroic mirror, and emitted fluorescence was collected through a long pass filter GG475 (Chroma Technology, Brattleboro, Vt.).
as §1

Q: With `CN[C@@H]1C[C@H]2O[C@@](C)([C@@H]1OC)n1c3ccccc3c3c4c(c5c6ccccc6n2c5c31)C(=O)NC4` [Staurosporine] as the molecule, how does the apoptosis induction (HT-1080-dual-6 cells) read?
A: The apoptosis induction was “induced apoptosis”.

Q: And the apoptosis induction (HT-1080-dual-6 cells; listed as staurosporine)?
A: Its apoptosis induction is “Apoptosis was well induced”.

Q: What about the “nuclear/cytoplasmic morphology during apoptosis” value (HT-1080-dual-6 cells) of the same molecule?
A: The value was “Progressive fragmentation of nucleus”.

Q: And the “nuclear/cytoplasmic morphology during apoptosis” value (HT-1080-dual-6 cells; listed as staurosporine)?
A: The value was “condensation of cytoplasm and nucleus and fragmentation of nucleus”.

Q: With `CC(=O)O[C@H]1C(=O)[C@@]2(C)[C@H]([C@H](OC(=O)c3ccccc3)[C@]3(O)C[C@H](OC(=O)[C@H](O)[C@@H](NC(=O)c4ccccc4)c4ccccc4)C(C)=C1C3(C)C)[C@]1(OC(C)=O)CO[C@@H]1C[C@@H]2O` [Taxol™, Paclitaxel] as the molecule, how does the “DNA fragmentation by gel electrophoresis” value (PC-3 dual cells [1]; 24 hours) read?
A: Its value is “before DNA fragmentation occurred”.

Q: And the “DNA fragmentation by gel electrophoresis” value (PC-3 dual cells [1]; 48 hours)?
A: Its value is “DNA fragmentation could be observed”.

Q: And the “effect on nuclei (morphology)” value (PC-3 dual cells [2]; Taxol 0.8 μg/ml, by 24 hours)?
A: The value was “form a ring-shaped structure”.

Q: And the “apoptosis (aberrant nuclear structures and fragmentation)” value (PC-3 dual cells [2]; Taxol 0.8 μg/ml, by 48 hours)?
A: The value was “entering apoptosis with very aberrant nuclear structures and fragmentation”.

Q: Which “effect on cell nuclei and cytoplasm (morphology)” value (PC-3 dual cells [2]; vinblastine 60 nM) does the source give for `CC[C@]1(O)C[C@@H]2CN(CCc3c([nH]c4ccccc34)[C@@](C(=O)OC)(c3cc4c(cc3OC)N(C)[C@H]3[C@@](O)(C(=O)OC)[C@H](OC(C)=O)[C@]5(CC)C=CCN6CC[C@]43[C@@H]65)C2)C1` [vinblastine] here?
A: Its value is “nuclei became more condensed and the cytoplasm appeared to expand”.
